The record followed here is ChEMBL document CHEMBL6071152, “Design, synthesis, and biological evaluation of oridonin derivatives as novel NLRP3 inflammasome inhibitors for the treatment of acute lung injury” (Eur J Med Chem, 2024).

The structures appear in SMILES notation. The source made the active and inactive calls. No cut-off for these calls is given here.

One may read the IC50 as the concentration that inhibits the measured activity by half.

The test system of data set [1] is Mus musculus. Put plainly: Anti-inflammatory activity against LPS-stimulated acute lung injury C57BL/6 mouse model assessed as decrease in TNF-alpha level in BALF at 0.1 to 1 mg/kg, ip treated for 3 days and on third day administered with LPS at 30 mins post-compound challenge and measured after 12 hrs by ELISA. Format: functional, organism-based. The conditions noted are these: dose 0.1-1 mg/kg, time 3.5 day.

The target in data set [2] is NACHT, LRR and PYD domains-containing protein 3 (Mus musculus) (UniProt Q8R4B8). The data set is described as follows: Inhibition of NLRP3 inflammasome activation in ICR mouse BMDM assessed as inhibition of LPS/MSU-stimulated IL-1 beta expression in cell supernatant at 1 uM treated for 3 hrs with LPS followed by incubation with compound for 1 hr and later stimulated with MSU for 4 hrs by western blot analysis. Format: cell-based. The settings on record: time 5.0 hrs. (Immunoblotting shows a protein as a band on a membrane.)
Sequence of NACHT, LRR and PYD domains-containing protein 3 (Mus musculus) (Q8R4B8 whole entry, the tested form may be a part): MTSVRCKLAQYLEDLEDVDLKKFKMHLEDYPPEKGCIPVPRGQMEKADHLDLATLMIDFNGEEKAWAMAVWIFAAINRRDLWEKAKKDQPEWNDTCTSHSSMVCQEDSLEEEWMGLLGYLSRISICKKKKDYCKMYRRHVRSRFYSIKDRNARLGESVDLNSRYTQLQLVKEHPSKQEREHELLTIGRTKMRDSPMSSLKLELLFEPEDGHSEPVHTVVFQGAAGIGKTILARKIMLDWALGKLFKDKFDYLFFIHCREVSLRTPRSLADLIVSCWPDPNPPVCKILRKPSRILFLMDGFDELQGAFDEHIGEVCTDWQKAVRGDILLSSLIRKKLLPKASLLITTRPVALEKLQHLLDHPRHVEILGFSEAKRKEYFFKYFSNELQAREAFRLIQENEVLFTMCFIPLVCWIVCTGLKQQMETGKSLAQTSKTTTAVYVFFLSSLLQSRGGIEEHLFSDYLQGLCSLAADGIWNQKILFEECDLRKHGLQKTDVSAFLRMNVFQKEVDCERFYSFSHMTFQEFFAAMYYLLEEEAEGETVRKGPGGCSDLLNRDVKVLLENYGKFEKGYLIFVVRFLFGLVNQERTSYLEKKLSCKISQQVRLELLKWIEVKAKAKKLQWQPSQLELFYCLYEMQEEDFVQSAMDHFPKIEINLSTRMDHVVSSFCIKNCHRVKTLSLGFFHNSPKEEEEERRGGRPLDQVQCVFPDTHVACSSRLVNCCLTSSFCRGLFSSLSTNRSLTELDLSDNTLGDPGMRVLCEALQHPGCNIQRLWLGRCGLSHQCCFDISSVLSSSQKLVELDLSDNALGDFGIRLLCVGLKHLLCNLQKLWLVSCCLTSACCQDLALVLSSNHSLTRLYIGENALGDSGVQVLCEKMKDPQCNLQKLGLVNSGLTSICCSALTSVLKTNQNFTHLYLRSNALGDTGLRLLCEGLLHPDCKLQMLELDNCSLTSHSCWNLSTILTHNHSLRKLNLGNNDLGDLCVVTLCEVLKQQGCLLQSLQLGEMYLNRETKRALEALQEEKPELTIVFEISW

Data set [3] addresses NLR family CARD domain-containing protein 4 (Mus musculus) (UniProt Q3UP24). Put plainly: Inhibition of NLRC4 inflammasome activation in ICR mouse BMDM assessed as inhibition of FLA-ST-stimulated IL-1 beta secretion in cell supernatant at 1 uM treated for 3 hrs with LPS followed by incubation with compound for 1 hr and later stimulated with FLA-ST for 2 hrs by ELISA. Format: cell-based.

In data set [4] the test system is Mus musculus. Put plainly: Anti-inflammatory activity against LPS-stimulated acute lung injury C57BL/6 mouse model assessed as decrease in TNF-alpha level in serum at 0.1 to 1 mg/kg, ip treated for 3 days and on third day administered with LPS at 30 mins post-compound challenge and measured after 12 hrs by ELISA. The class given is functional, organism-based. The settings on record: dose 0.1-1 mg/kg, time 3.5 day. Background: An ELISA detects its analyte on a solid surface through an enzyme-linked reagent.

In data set [5] the test system is Mus musculus. The data set is described as follows: Anti-inflammatory activity against LPS-stimulated acute lung injury C57BL/6 mouse model assessed as decrease in IL-1 beta level in BALF at 0.1 to 1 mg/kg, ip treated for 3 days and on third day administered with LPS at 30 mins post-compound challenge and measured after 12 hrs by ELISA. The settings on record: dose 0.1-1 mg/kg, time 3.5 day. The class given is functional, organism-based.

Data set [6] is described as follows: Cytotoxicity against ICR mouse BMDM assessed as reduction in cell viability incubated for 24 hrs by CCK8 assay. Format: toxicity, cell-based. The conditions noted are these: BMDM (bone marrow-derived macrophages). A general note: Tetrazolium dyes change colour on reduction, which living cells bring about.
The target in data set [7] is NLR family CARD domain-containing protein 4 (Mus musculus) (UniProt Q3UP24). The data set is described as follows: Inhibition of NLRC4 inflammasome activation in ICR mouse BMDM assessed as inhibition of FLA-ST-stimulated IL-1 beta expression in cell supernatant at 1 uM treated for 3 hrs with LPS followed by incubation with compound for 1 hr and later stimulated with FLA-ST for 2 hrs by western blot analysis. Format: cell-based.
Sequence of NLR family CARD domain-containing protein 4 (Mus musculus) (Q3UP24 whole entry, the tested form may be a part): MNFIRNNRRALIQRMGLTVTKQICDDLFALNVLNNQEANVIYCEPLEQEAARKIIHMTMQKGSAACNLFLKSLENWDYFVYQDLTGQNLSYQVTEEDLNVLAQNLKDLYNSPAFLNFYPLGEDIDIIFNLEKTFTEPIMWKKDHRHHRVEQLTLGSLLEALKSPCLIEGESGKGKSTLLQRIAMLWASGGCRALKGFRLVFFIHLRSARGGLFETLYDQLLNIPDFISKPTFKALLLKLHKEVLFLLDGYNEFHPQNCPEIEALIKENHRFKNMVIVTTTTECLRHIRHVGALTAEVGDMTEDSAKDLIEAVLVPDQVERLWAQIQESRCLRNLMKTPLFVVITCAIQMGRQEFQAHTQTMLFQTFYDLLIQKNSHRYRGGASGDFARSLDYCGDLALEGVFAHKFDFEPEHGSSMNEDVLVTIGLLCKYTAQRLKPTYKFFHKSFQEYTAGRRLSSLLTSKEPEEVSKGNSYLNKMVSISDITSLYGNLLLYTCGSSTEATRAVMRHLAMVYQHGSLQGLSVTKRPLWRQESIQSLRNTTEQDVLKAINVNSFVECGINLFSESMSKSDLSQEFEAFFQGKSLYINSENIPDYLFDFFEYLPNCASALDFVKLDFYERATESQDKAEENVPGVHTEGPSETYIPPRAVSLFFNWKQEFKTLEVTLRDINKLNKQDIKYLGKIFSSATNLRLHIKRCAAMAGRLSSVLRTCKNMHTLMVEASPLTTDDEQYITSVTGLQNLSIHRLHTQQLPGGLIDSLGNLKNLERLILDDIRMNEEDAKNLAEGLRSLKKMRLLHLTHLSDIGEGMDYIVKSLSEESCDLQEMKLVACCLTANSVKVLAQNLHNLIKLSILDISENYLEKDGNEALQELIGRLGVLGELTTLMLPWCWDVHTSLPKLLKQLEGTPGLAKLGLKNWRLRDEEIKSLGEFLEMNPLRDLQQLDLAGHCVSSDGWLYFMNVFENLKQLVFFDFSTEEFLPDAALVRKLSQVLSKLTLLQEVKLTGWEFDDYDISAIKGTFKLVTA

In data set [8] the test system is Mus musculus. Put plainly: Anti-inflammatory activity against LPS-stimulated acute lung injury C57BL/6 mouse model assessed as decrease in TNF-alpha mRNA expression in right lung at 0.1 to 1 mg/kg, ip treated for 3 days and on third day administered with LPS at 30 mins post-compound challenge and measured after 12 hrs by RT-qPCR analysis. Format: functional, organism-based. The conditions noted are these: dose 0.1-1 mg/kg, time 3.5 day.

For data set [9], the system named is Mus musculus. The data set is described as follows: Anti-inflammatory activity against LPS-stimulated acute lung injury C57BL/6 mouse model assessed as decrease in weight loss at 0.1 to 1 mg/kg, ip treated for 3 days and on third day administered with LPS at 30 mins post-compound challenge. The class given is functional, organism-based. The settings on record: dose 0.1-1 mg/kg, time 3.0 day.

Data set [10] relates to Mus musculus. The data set is described as follows: Anti-inflammatory activity against LPS-stimulated acute lung injury C57BL/6 mouse model assessed as decrease in thickening of alveolar septa in right lung at 1 to 10 mg/kg, ip treated for 3 days and on third day administered with LPS at 30 mins post-compound challenge and measured after 12 hrs by Hematoxylin-Eosin staining analysis. The class given is functional, organism-based. The conditions noted are these: dose 1-10 mg/kg, time 3.5 day.

In data set [11] the target is NACHT, LRR and PYD domains-containing protein 3 (Mus musculus) (UniProt Q8R4B8). The data set is described as follows: Inhibition of NLRP3 inflammasome activation in ICR mouse BMDM assessed as inhibition of LPS/ATP-stimulated IL-1 beta expression in cell supernatant at 1 uM treated for 3 hrs with LPS followed by incubation with compound for 1 hr and later stimulated with ATP for 0.5 hrs by western blot analysis. The class given is cell-based. The settings on record: time 1.5 hrs.

Data set [12] has the same target. Put plainly: Inhibition of NLRP3 inflammasome priming in ICR mouse BMDM assessed as inhibition of NLRP3 protein expression in cell lysate at 0.2 to 5 uM treated for 3 hrs with LPS followed by incubation with compound for 1 hr and later stimulated with ATP for 0.5 hrs by western blot analysis. Format: subcellular. The conditions noted are these: dose 0.2-5 µM, time 1.5 hrs.

Data set [13] has the same target. The data set is described as follows: Inhibition of NLRP3 inflammasome activation in ICR mouse BMDM assessed as inhibition of LPS/MSU-stimulated IL-1 beta secretion in cell supernatant at 1 uM treated for 3 hrs with LPS followed by incubation with compound for 1 hr and later stimulated with MSU for 4 hrs by ELISA. Format: cell-based. The settings on record: time 5.0 hrs.

In data set [14] the test system is Mus musculus. Put plainly: Anti-inflammatory activity against LPS-stimulated acute lung injury C57BL/6 mouse model assessed as decrease in IL-6 level in serum at 0.1 to 1 mg/kg, ip treated for 3 days and on third day administered with LPS at 30 mins post-compound challenge and measured after 12 hrs by ELISA. Format: functional, organism-based. The settings on record: dose 0.1-1 mg/kg, time 3.5 day.

Data set [15] addresses NACHT, LRR and PYD domains-containing protein 3 (Mus musculus) (UniProt Q8R4B8). The data set is described as follows: Inhibition of NLRP3 inflammasome priming in ICR mouse BMDM assessed as inhibition of ASC protein expression in cell lysate at 0.2 to 5 uM treated for 3 hrs with LPS followed by incubation with compound for 1 hr and later stimulated with ATP for 0.5 hrs by western blot analysis. Format: subcellular. The settings on record: dose 0.2-5 µM, time 1.5 hrs.

For data set [16] the target is unchanged. The data set is described as follows: Inhibition of NLRP3 inflammasome priming in ICR mouse BMDM assessed as inhibition of pro-caspase-1 expression in cell lysate at 1 uM treated for 3 hrs with LPS followed by incubation with compound for 1 hr and later stimulated with nigericin for 0.5 hrs by western blot analysis. The class given is subcellular. The settings on record: time 1.5 hrs.

In data set [17] the test system is Mus musculus. Put plainly: Anti-inflammatory activity against LPS-stimulated acute lung injury C57BL/6 mouse model assessed as decrease in IL-1 beta mRNA expression in right lung at 0.1 to 1 mg/kg, ip treated for 3 days and on third day administered with LPS at 30 mins post-compound challenge and measured after 12 hrs by RT-qPCR analysis. Format: functional, organism-based. The settings on record: dose 0.1-1 mg/kg, time 3.5 day.

Data set [18] concerns the target NACHT, LRR and PYD domains-containing protein 3 (Mus musculus, UniProt Q8R4B8). The data set is described as follows: Inhibition of NLRP3 inflammasome activation in ICR mouse BMDM assessed as inhibition of LPS/ATP-stimulated IL-1 beta production in cell supernatant treated for 3 hrs with LPS followed by incubation with compound for 1 hr and later stimulated with ATP for 0.5 hrs by ELISA. Format: cell-based.

Data set [19] has as its system Mus musculus. The data set is described as follows: Anti-inflammatory activity against LPS-stimulated acute lung injury C57BL/6 mouse model assessed as decrease in IL-6 mRNA expression in right lung at 0.1 to 1 mg/kg, ip treated for 3 days and on third day administered with LPS at 30 mins post-compound challenge and measured after 12 hrs by RT-qPCR analysis. The class given is functional, organism-based. The settings on record: dose 0.1-1 mg/kg, time 3.5 day.

The subject of data set [20] is Mus musculus. The data set is described as follows: Anti-inflammatory activity against LPS-stimulated acute lung injury C57BL/6 mouse model assessed as decrease in IL-1 beta level in serum at 0.1 to 1 mg/kg, ip treated for 3 days and on third day administered with LPS at 30 mins post-compound challenge and measured after 12 hrs by ELISA. Format: functional, organism-based. The conditions noted are these: dose 0.1-1 mg/kg, time 3.5 day.

Data set [21] concerns the target NACHT, LRR and PYD domains-containing protein 3 (Mus musculus) (UniProt Q8R4B8). The data set is described as follows: Inhibition of NLRP3 inflammasome priming in ICR mouse BMDM assessed as inhibition of TNF-alpha secretion in cell supernatant at 0.2 to 5 uM pretreated with compound for 1 hr followed by stimulation with LPS for 3 hrs and later incubated with ATP for 30 mins by ELISA. Format: cell-based. The conditions noted are these: dose 0.2-5 µM, time 4.5 hrs.

Data set [22] has the same target. Put plainly: Inhibition of NLRP3 inflammasome priming in ICR mouse BMDM assessed as inhibition of pro-IL1 beta protein expression in cell lysate at 1 uM treated for 3 hrs with LPS followed by incubation with compound for 1 hr and later stimulated with MSU for 4 hrs by western blot analysis. The class given is subcellular. The settings on record: time 5.0 hrs.

Sequence of NACHT, LRR and PYD domains-containing protein 3 (Q8R4B8 whole entry, the tested form may be a part): as the sequence (Q8R4B8 whole entry, the tested form may be a part) above

Regarding `C=C1C(=O)[C@]23[C@H](OC(=O)Nc4ccc(F)cc4)[C@H]1CC[C@H]2[C@]12C=CCC(C)(C)[C@H]1[C@H](O)[C@@]3(O)OC2`, the Activity entry in the data set on Mus musculus [1], with Mus musculus [4], with Mus musculus [5], in the data set on Mus musculus [8], with Mus musculus [14] and in the data set with Mus musculus [17] was “Dose-Dependent Effect” in each case. The Activity result in the data set with Mus musculus [19] and in the data set on Mus musculus [20] was “Dose-Dependent Effect” each time. Also, the inhibition result in data set [2], in data set [11] and in [13] was “Active” each time. The inhibition entry in data set [3], in [7], in data set [12], in data set [15], in data set [16] and in data set [21] was “inactive” each time. Further, the inhibition entry in [22] is “inactive”. Moreover, the half-maximal inhibitory concentration (IC50) at 24 h in data set [6] was over 10000 nM. Besides, the outcome in the data set on Mus musculus [9] and with Mus musculus [10] was Active. The IC50 in data set [18] amounted to 41.8 nM.
